We go through ten compounds from ChEMBL document CHEMBL1764989, “Local structural changes, global data views: graphical substructure-activity relationship trailing” (J Med Chem, 2011).

The assay concerns the target Coagulation factor X (Homo sapiens, UniProt P00742). Kind of assay: Inhibition of human factor 10a.

Molecules are shown by their SMILES.

Chain of Coagulation factor X (P00742 41-179 limits assumed): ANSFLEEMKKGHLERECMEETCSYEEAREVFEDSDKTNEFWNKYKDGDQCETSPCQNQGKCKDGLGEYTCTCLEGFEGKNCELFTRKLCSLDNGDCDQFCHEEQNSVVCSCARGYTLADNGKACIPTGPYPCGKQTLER
Chain of Coagulation factor X (P00742 235-488 limits assumed): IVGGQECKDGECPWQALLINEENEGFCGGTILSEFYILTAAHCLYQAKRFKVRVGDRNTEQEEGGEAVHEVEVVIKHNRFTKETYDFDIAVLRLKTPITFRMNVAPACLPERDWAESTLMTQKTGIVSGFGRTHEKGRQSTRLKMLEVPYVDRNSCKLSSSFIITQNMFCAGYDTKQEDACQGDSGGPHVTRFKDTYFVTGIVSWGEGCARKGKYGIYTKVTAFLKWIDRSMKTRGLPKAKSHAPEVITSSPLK

`COC(=O)COc1ccc(C(=N)N)cc1CN1CCC(NS(=O)(=O)c2ccc3ccc(OC)cc3c2)C1=O` (stereo not given) gave an inhibitory constant (Ki) of 7.94 nM. For `COc1ccc2ccc(S(=O)(=O)NC3CCN(Cc4cc(N)cc(C(=N)N)c4)C3=O)cc2c1` (stereo not given), the inhibitory constant (Ki) is 1260 nM. `COc1ccc(-n2nc(C(F)(F)F)c3c2C(=O)N(c2ccc(-c4ccccc4S(C)(=O)=O)cc2)CC3)cc1`: the affinity, expressed as Ki, was 0.2 nM. Under `COc1ccc(-n2nc(C(F)(F)F)c3c2C(=O)N(c2ccc(-c4ccccc4CN4CCC(O)C4)cc2)CC3)cc1` (stereo not given) stands 0.501 nM; under `COc1ccc2ccc(S(=O)(=O)NC3CCN(Cc4cc(C(=N)N)ccc4N)C3=O)cc2c1` (stereo not given), 6.31 nM; under `COc1ccc2ccc(S(=O)(=O)NC3CCN(Cc4ccc(O)c(C(=N)N)c4)C3=O)cc2c1` (stereo not given), 1000 nM.

`COc1ccc2ccc(S(=O)(=O)NC3CCN(Cc4cc(C(=N)N)ccc4O)C3=O)cc2c1` (stereo not given) had a Ki of 3.16 nM. On to `COc1ccc2ccc(S(=O)(=O)NC3CCN(Cc4cc(C(=N)N)ccc4OCC(=O)O)C3=O)cc2c1` (stereo not given), for which the affinity, expressed as Ki, was 1260 nM. `COc1ccc(-n2nc(C(F)(F)F)c3c2C(=O)N(c2ccc(N(C)C)cc2)CC3)cc1` gave an inhibition constant (Ki) of 6.31 nM. With `COc1ccc(-n2nc(C(F)(F)F)c3c2C(=O)N(c2ccc(NC(C)=O)cc2)CC3)cc1`, the Ki was 200 nM.

A word on the Ki: it is a dissociation constant, usually derived from enzyme kinetics or from competition with a known ligand. Low readings indicate tighter binding, high ones weaker binding.
